The record followed here is patent publication US6376536B1, “Quaternary ammonium salts and their use” (Takeda Chemical Industries, Ltd., priority 1998, dated 2002).

Structures can show the parent of a compound that is named as a salt.

The subject of data set [1] is HIV-1 BA-L. The experiment in a line: Inhibitory effect on HIV-1 infection to MAGI-CCR5 cell. As to conditions: Human immunodeficiency virus 1, BAL, 48 h; 0.064 μM Test Compound medium; MAGI-CCR5 cells; 300 PFU HIV-1 BA-L; 2 days; blue cell count. The format is cell-based. The procedure: The plasmid where β-galactosidase gene was ligated downstream of HIV-1 LTR was introduced into CD4 positive HeLa cell, to which human CCR5 was further introduced to obtain transformant MAGI-CCR5. By using said transformant MAGI-CCR^5, degree of HIV-1 infection was calculated from β-galactosidase activity (blue color due to decomposition of 5-bromo-4-chloro-3-indolyl-β-D-galactopyranoside). Specifically, MAGI-CCR5 cells were suspended in DMEM medium containing 10% serum to prepare 5×10^4 cells/ml suspension. To each well of 96 well plate was inoculated 200 μl of the suspension, and the cells were cultivated at 37° C. overnight. The medium was removed by means of suction, and to the residue was added 100 μl of the above medium containing 0.064 μM of Test Compound and 100 μl of the above medium containing 300 PFU of HIV-1 BA-L cells. The cells were cultivated at 37° C. for 2 days. The medium was removed by means of suction. To the residue was added 200 μl of cell fixative (PBS containing 1% formaldehyde and 0.2% glutaraldehyde), and the mixture was allowed to stand at room temperature for 5 minutes and washed twice with PBS. […] The number of blue cells was counted by microscope and defined as the number of cells infected with HIV-1.

The test system of data set [2] is HIV-1 BA-L. In words: Inhibitory effect on HIV-1 infection to human PBMC (p24 antigen ELISA). The format is cell-based. As to conditions: Human immunodeficiency virus 1, BAL, 0.032 μM Test Compound solution, p24 antigen in supernatant. The procedure:
From normal person human peripheral blood mononuclear cells (PBMC) were separated, and the cells were stimulated with 10 μg/ml of PHA (Phytohemaglutinin) and 20 U/ml of interleukin-2 (IL-2) for 3 days. The cells were suspended in RPMI-1640 medium containing 20% serum to prepare 1×10 ^6/ml suspension. To the suspension were infected HIV-1 BA-L cells (20 ng as an amount of p24 antigen), and viruses were absorbed at 37° C. for 2 hours. The cells were washed and suspended in RPMI-1640 medium containing 20% serum and IL-2 20 U/ml to prepare 1×10^5/ml suspension. To the PBMC suspension was added the same amount of a solution which contains 0.032 μM of Test Compound, and the cells were cultivated at 37° C. in carbon dioxide gas incubator. The amount of p24 antigen in supernatant of the cultivated medium was determined by enzyme-linked immunosorbent assay (ELISA) and defined as degree of HIV-1 infection.
(In general: ELISA stands for enzyme-linked immunosorbent assay.)

Another data set addresses T1, human CCR5 (Homo sapiens, UniProt P51681).
T1 construct: expressed in transfected cells; plasmid pCKR5 = pcDNA3.1 with about 1.0 kb CCR5 insert
The experiment in a line: [125I]-RANTES binding inhibition on CHO/CCR5 cells. As to conditions: Test Compound 1 μM, 100 pM [125I]-RANTES. As for the experimental part:
CHO-K1 cells were grown in 750 ml of tissue culture flask (Becton Dickinson) using Ham's F12 medium (Nihon Pharmaceutical) containing 10% fetal calf serum (Life Tech Oriental) and took off with 0.5 g/L trypsin-0.2 g/L EDTA (Life Tech Oriental). The cells were washed with PBS (Life Tech Oriental), centrifuged (1000 rpm, 5 minutes), and suspended in PBS. With using Gene Pulser (Bio-Rad Laboratories), DNA was introduced into the cells under the conditions shown below. That is, to the cuvette of 0.4 cm gap were added 8×10^6 cells and 10 μg of plasmid pCKR5 for expression of human CCR5, and electroporation was carried out under 0.25 kV of voltage and 960 μF. of capacitance. The cells where transferred into Ham's F12 medium (Nihon Pharmaceutical) containing 10% fetal calf serum, and cultivated for 24 hours. The cells were again took off and centrifuged, and suspended in Ham's F12 medium (Nihon Pharmaceutical) containing 10% fetal calf serum and 500 μg/ml of geneticin (Life Tech Oriental). […] Radioactivity was determined with γ-counter to select CHO/CCR5 cells which specifically bind to the ligand.
The CHO/CCR5 were inoculated on 96 well microplate (5×10^4 cells/well) and cultivated for 24 hours. […] Radio-activity was determined with TopCount Micro Scintillation Counter (Packard Instrument, Inc.). […]

T1 sequence (P51681 whole entry): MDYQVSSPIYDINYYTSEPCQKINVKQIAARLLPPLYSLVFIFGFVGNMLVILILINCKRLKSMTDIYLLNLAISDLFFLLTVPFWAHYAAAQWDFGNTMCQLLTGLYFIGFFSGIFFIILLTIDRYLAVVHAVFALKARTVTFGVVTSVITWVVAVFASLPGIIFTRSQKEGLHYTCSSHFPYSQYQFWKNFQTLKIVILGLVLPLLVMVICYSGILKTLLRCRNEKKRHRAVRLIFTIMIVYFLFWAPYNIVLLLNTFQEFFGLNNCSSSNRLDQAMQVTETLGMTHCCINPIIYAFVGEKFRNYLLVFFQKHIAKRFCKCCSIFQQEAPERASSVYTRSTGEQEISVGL

On to `Cc1ccc(-c2ccc3c(c2)C=C(C(=O)Nc2ccc(C[N+](C)(C)C4CCOCC4)cc2)CCC3)cc1` [Compound 1, N,N-dimethyl-N-(4-(((2-(4-methylphenyl)-6,7-dihydro-5H-benzocyclohepten-8-yl)carbonyl)amino)benzyl)-N-(4-tetrahydropyranyl)ammonium chloride], for which the inhibition at 0.064 µM in the data set with HIV-1 BA-L [1] is 100%. Testing at 0.032 µM with HIV-1 BA-L [2] gave an inhibition of 74%. With `Cc1ccc(-c2ccc3c(c2)C=C(C(=O)Nc2ccc(C[N+](C)(C)C4CCC(=O)CC4)cc2)CCO3)cc1.[Cl-]` [Compound 2], the “Inhibition Rate (%) to CCR5 binding” value on human CCR5 turned out to be 96%.

In turn, `CCOc1ccc(-c2ccc3c(c2)C=C(C(=O)Nc2ccc(C[N+](C)(C)C4CCOCC4)cc2)CCO3)cc1` (as salt: chloride) [Compound 3, N-(4-(((7-(4-ethoxyphenyl)-2,3-dihydro-1-benzoxepin-4-yl)carbonyl)amino)benzyl)-N,N-dimethyl-N-(4-tetrahydropyranyl)ammonium chloride] returned a melting point of 200 to 204 °C.

Usually inhibition stands for the relative decrease from the control value, in per cent. A low value points to little suppression. For orientation: melting point means the temperature, or range, at which the solid turns liquid.
